Entries after “also recorded” stand apart in the source; their conditions may differ.
Tests used:
[1] = tested on: E13.5 Rat embryonic pancreases; test: E13.5 rat embryonic pancreas organ culture: growth, morphology and toxicity (Hoechst staining); type: cell-based
Description: (§1) Pregnant Wistar rats were purchased from the Janvier Breeding centre (CERJ, LeGenet, France). The first day postcoitum was taken as embryonic day (E) 0.5. Pregnant rats were killed with CO2 asphyxiation according to guidelines issued by the French Animal Care Committee. Dorsal pancreatic buds from E13.5 rat embryos were dissected as described previously (Miralles et al., 1998). Briefly, the stomach, pancreas and a small portion of the intestine were dissected together, and then the pancreas primordium was isolated.
(§2) Dorsal pancreatic rudiments were cultured on 0.45 μm filters (Millipore) at the air-medium interface in a 35 mm sterile Petri dishes containing 2 ml RPMI-1640 medium (Invitrogen) supplemented with 100 U/ml penicillin, 100 μg/ml streptomycin, 10 mmol/L HEPES, 2 mmol/L L-glutamine, 1× non-essential aminoacids (Invitrogen) and 10% heat-inactivated fetal calf serum (HyClone, Logan, Utah, USA). Glibenclamide (MP Biomedical) and nifedipine (Sigma), used at the indicated concentrations, were first dissolved as concentrated solutions in dimethylsulfoxide DMSO (Sigma), the final concentration of DMSO in the culture medium was less than 0.5% (vol/vol). The culture medium was changed every day. Glibenclamide and nifedipine were added to the media daily. The cultures were incubated at 37° C. in a humidified atmosphere composed of 95% air and 5% CO2. At the end of the culture period, the pancreases were photographed, and fixed as described below or harvested for RNA extraction
(§3) Quantification—To quantify the surface area of insulin, glucagon, PCSK1/3, CPA and amylase-expressing cells, all sections of each pancreatic rudiment were digitized. Alternate sections were examined to avoid counting the same cell twice. The surface of insulin, glucagon, PCSK1/3, CPA, amylase, and Hoechst stainings were quantified using Iplab (Scanalytics). The stained areas were summed to obtain the total surface area per rudiment in mm^2. To measure proliferation of the early progenitors expressing PDX1, we counted the frequency of BrdU positive progenitors expressing PDX1 among 3000 early progenitors expressing PDX1 per rudiment. To quantify the absolute number of NGN3-expressing cells, pancreatic rudiments were sectioned and all sections were stained with an anti-NGN3 antibody. Positive cells were counted on all sections of each pancreatic rudiment. A minimum of three rudiments was analyzed per condition.
Using the in vitro model as described above (E13.5 Rat embryonic pancreases cultured at the air/medium interface on a floating filter), we examined the effects of increased concentrations of the sulphonylurea glibenclamide (an inhibitor of KATP channels) on pancreas development. […] Under both conditions, the epithelium grew rapidly, spread into the mesenchyme, and developed lobules. There is no difference in apoptosis in pancreases cultured 7 days without or with 10 and 100 μM glibenclamide as shown by the Hoechst staining of the nuclei (FIG. 1B).

[2] = tested on: E13.5 Rat embryonic pancreases; test: Immunohistochemistry and quantification of stained surface area / cell number in cultured embryonic pancreases; type: cell-based
Description: as §1, §2
Immunochemistry—The pancreatic rudiments were fixed in 10% formalin, pre-embedded in agarose gel (4% of type VII low-gelling-temperature agarose (Sigma) in H2O) and embedded in paraffin. Immunohistochemistry was performed on 4-μm paraffin sections as previously described (Duvillie et al., 2006). The primary antibodies were mouse anti insulin (1/2000; Sigma), rabbit anti-glucagon (1/1000; Diasorin), rabbit anti-amylase (1/300; Sigma), rabbit anti-carboxypeptidase A (1/600; Biogenesis, Kidlington, Oxford, UK), rabbit anti-PDX1 (1/1000) (Duvillie et al., 2003) mouse anti-BrdUrd5 (1/2; Amersham Biosciences, Buckingham, UK), rabbit anti-PCK1/3, rabbit anti-Ngn3 (1/100, Guillemain et al., 2007), rabbit anti-KIR6.2 and anti-SUR1 (1/100, Santa Cruz). The fluorescent secondary antibodies were fluorescein anti-rabbit antibody (1/200; Jackson Immunoresearch, Baltimore, Md., USA), fluorescein goat anti-rabbit Alexa Fluor 488 (1/400; Invitrogen) and Texas red anti-mouse antibody (1/200; Jackson). Nuclei were stained in blue with Hoechst 33342 (0.3 μg/ml; Invitrogen). Ngn3 detection was performed as previously described (Guillemain et al., 2007) using the Vectastain elite ABC kit (Vector laboratories).
as §3

[3] = tested on: E13.5 Rat embryonic pancreases; test: Real-time PCR of gene expression in cultured embryonic pancreases; type: cell-based
Description: as §1, §2
Total RNA was isolated from pools of at least three pancreases using the Qiagen RNeasy Microkit (Qiagen, Courtaboeuf, France) and reverse transcribed using Superscript reagents (Invitrogen). Real-time PCR was performed with the 7300 Fast real-time PCR system (Applied Bio system) using either Taqman universal PCR universal PCR master mix or SYBR green PCR master mix (Applied Biosystem) with primers and labelled probes specific for each gene. Peptidylpropyl isomerase A/Cyclophilin A was used as endogenous control and E16.5 pancreas cDNA as calibrator sample. The data were analyzed by comparative cycle threshold method (Livak et al., 1997) and presented as the fold change in gene expression. At least three pools of explants were analysed by condition.

[4] = tested on: early progenitors expressing PDX1; test: BrdU incorporation: proliferation of early PDX1 progenitors in cultured embryonic pancreases; type: cell-based, rat; conditions: 100 μM; 24 h culture, BrdU during last hour (FIG. 3D); control 31.24%±2.8%
Description: as §2, with “Glibenclamide and nifedipine were added to the media daily. The cultures were incubated at 37° C. in a humidified atmosphere composed of 95% air and 5% CO2. At the end of the culture period, the pancreases were photographed, and fixed as described below or harvested for RNA extraction” left out
as §3, with “Alternate sections were examined to avoid counting the same cell twice.” left out, “The stained areas were summed to obtain the total surface area per rudiment in mm^2.” left out, “A minimum of three rudiments was analyzed per condition.” left out

SMILES: COc1ccc(Cl)cc1C(=O)NCCc1ccc(S(=O)(=O)NC(=O)NC2CCCCC2)cc1 [glibenclamide]
- pancreatic growth vs control ([1]; 10 nM, 100 nM, 1, 10 or 100 μM, 7 days of culture (FIG. 1A)): similar
- branching of the epithelium ([1]; 100 μM (FIG. 1A)): more branched
- apoptosis (Hoechst staining of the nuclei) vs control ([1]; 10 and 100 μM, 7 days (FIG. 1B)): no difference
- toxicity by overall size of pancreases (Hoechst surface area) ([1]; 10 or 100 μM, 7 days (FIG. 1C)): lack of glibenclamide toxicity
- pycnotic nuclei (Hoechst staining) ([1]; 7 days, indicated concentrations (FIG. 1B)): lack of pycnotic nuclei
- number of NGN3+ cells vs control ([2]; 100 μM, 5 days of culture (FIG. 3B, 3C)): threefold higher; also recorded: increased number of NGN3 positive nuclei
- surface area occupied by PCSK1/3 staining in PDX-1+ cells vs control ([2]; 100 μM, 7 days (FIG. 2D)): similar
- increase of the number of glucagon-expressing cells ([2]; 100 μM, 7 days (FIG. 2E)): 3.5 fold
- decrease of surface area occupied by the insulin-cell population ([2]; 7 days of culture, vs control, data not shown): 70%
- insulin-positive cells (insulin-staining area) ([2]; Glib 5D pancreases, data not shown): significant increase
- insulin-containing cells ([2]; Glib pancreases: glibenclamide during the 14-day culture period, data not shown): less
- insulin-expressing cells ([2]; Glib-5D: 100 μM only during first 5 days, D9, D11 or D14 (FIG. 4A)): large number
- Pou3F4/Brn4 mRNA level ([3]; 100 μM, D7 (FIG. 2F)): significant increase
- Ngn3 expression (mRNA) increase vs control ([3]; 100 μM, after 5 days of culture, p<0.001 (FIG. 3A)): sevenfold
- Ngn3 mRNA level vs control ([3]; 100 μM, after the D5 peak (D7), p<0.001 (FIG. 3A)): dramatically higher
- insulin expression (mRNA) ([3]; 100 μM, as early as D3 (FIG. 2A)): strongly reduced
- Ngn3 expression (mRNA) vs control ([3]; 100 μM, day 1 and 3 (FIG. 3A)): similar
- ZnT-8 expression (mRNA) ([3]; 100 μM, over the 7 days of culture (FIG. 2B)): did not affect
- MafA expression (mRNA) ([3]; 100 μM, over the 7 days of culture (FIG. 2C)): did not affect
- NeuroD1 mRNA level vs control ([3]; D5, data not shown): significantly increased
- NeuroD1 mRNA level vs control ([3]; D7, data not shown): reminded enhanced
- ZnT-8 expression vs control ([3]; Glib 5D, after 9, 11 and 14 days, p<0.01 (FIG. 4C)): dramatic increase
- MafA expression vs control ([3]; Glib 5D, after 9, 11 and 14 days, p<0.01 (FIG. 4D)): dramatic increase
- insulin mRNA level vs control ([3]; Glib-5D, D7 (FIG. 4B)): identical
- insulin mRNA level increase vs control ([3]; Glib-5D, D9 (FIG. 4B)): threefold
- insulin mRNA level increase vs control ([3]; Glib-5D, D11 (FIG. 4B)): twofold
- insulin mRNA level increase vs control ([3]; Glib-5D, D14 (FIG. 4B)): threefold
- ZnT-8 expression vs control ([3]; Glib-5D, after 7 days of culture (FIG. 4C)): similar
- MafA expression vs control ([3]; Glib-5D, after 7 days of culture (FIG. 4D)): similar
- NeuroD1 mRNA levels vs control ([3]; after 1 and 3 days of culture, data not shown): similar
- increase in somatostatin expression ([3]; after 7 days of culture, data not shown): two-fold
- percentage of PDX-1+ cells that incorporate BrdU [4]: 32.60%±4.2%
